{"source": "patent US20030008852A1", "about": "“Transdermal system containing acetylsalicylic acid for treatment of migraine” (priority 1999, published 2003)", "origin": "cited, not measured here", "tested_on": "migraine", "conditions": "oral, 235 mg every second day", "data": [{"smiles": "CC(=O)Oc1ccccc1C(=O)O", "note": "[acetylsalicylic acid]", "values": [{"measurement": "reduction in the migraine recurrence rate compared with the placebo group", "value": 20, "unit": "%"}]}]}
